The assay deals with T1, Jak3 enzyme (aa 811-1103) (Homo sapiens, UniProt P52333).
T1 construct: Jak3 enzyme (aa 811-1103); expressed in SF9 cells as a GST fusion; GST; made in house; host or cells: SF9 insect cells
The assay is described as follows: In vitro Jak3 kinase activity measured by time-resolved fluorescence resonance energy transfer (trFRET). It is filed as biochemical. Particulars: ATP 0.001 mM. The protocol:
In Vitro Jak3 Kinase Activity Measured by Time-Resolved Fluorescence Resonance Energy Transfer (trFRET)
Varying concentrations of inhibitor were added to an assay well containing: Jak3 enzyme (aa 811-1103; expressed in SF9 cells as a GST fusion and purified by glutathione affinity chromatography; 3 nM), peptide substrate (biotin-TYR2, Sequence: Biotin-(Ahx)-AEEEYFFLFA-amide; 2 μM), MOPSO pH 6.5 (50 mM), MgCl2 (10 mM), MnCl2 (2 mM), DTT (2.5 mM), BSA (0.01% w/v), Na3VO4 (0.1 mM) and ATP (0.001 mM). After about 60 min incubation at rt, the reaction was quenched by addition of EDTA (final concentration: 100 mM) and developed by addition of revelation reagents (final approximate concentrations: 30 mM HEPES pH 7.0, 0.06% BSA, 0.006% Tween-20, 0.24 M KF, 80 ng/mL PT66K (europium labeled anti-phosphotyrosine antibody cat #61T66KLB Cisbio, Bedford, Mass.) and 0.8 μg/mL SAXL (Phycolink streptavidin-allophycocyanin acceptor, cat #PJ52S, Prozyme, San Leandro, Calif.). The developed reaction was incubated in the dark either at about 4° C., for about 14 h or for about 60 min at rt, then read via a time-resolved fluorescence detector (Rubystar, BMG) using a 337 nm laser for excitation and emission wavelength of 665 nm. Within the linear range of the assay, the observed signal at 665 nm is directly related to phosphorylated product and used to calculate the IC50 values.

What is called IC50 is the point on the concentration scale where inhibition reaches its midpoint.

T1 sequence (P52333 811-1103): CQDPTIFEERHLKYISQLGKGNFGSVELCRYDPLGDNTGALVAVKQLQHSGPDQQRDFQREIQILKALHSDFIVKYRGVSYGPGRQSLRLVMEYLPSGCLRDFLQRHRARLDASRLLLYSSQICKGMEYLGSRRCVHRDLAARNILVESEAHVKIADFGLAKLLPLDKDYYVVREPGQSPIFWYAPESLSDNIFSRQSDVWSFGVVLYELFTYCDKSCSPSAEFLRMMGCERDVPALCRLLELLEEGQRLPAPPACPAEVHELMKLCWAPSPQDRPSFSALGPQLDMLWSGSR

In the case of `CC[C@@H]1C[C@H](NC(=O)COc2cc(C)on2)C[C@@H]1c1nnc2cnc3[nH]ccc3n12` [compound 26, N-((1S,3R,4S)-3-ethyl-4-(6H-pyrrolo[2,3-e][1,2,4]triazolo[4,3-a]pyrazin-1-yl)cyclopentyl)-2-(5-methylisoxazol-3-yloxy)acetamide], the IC50 (Table B) was greater than 10 µM. Take `C[C@@H]1C[C@H](N2CCC(C#N)CC2)C[C@@H]1c1cnc2cnc3[nH]ccc3n12` [Example #5, 1-((1S,3S,4R)-3-(3H-imidazo[1,2-a]pyrrolo[2,3-e]pyrazin-8-yl)-4-methylcyclopentyl)piperidine-4-carbonitrile]: the IC50 is greater than 10 µM. In turn, `CC[C@@H]1C[C@H](NC(=O)CN(C)C(=O)c2ccco2)C[C@@H]1c1nnc2cnc3[nH]ccc3n12` [compound 27, N-(2-((1S,3R,4S)-3-ethyl-4-(6H-pyrrolo[2,3-e][1,2,4]triazolo[4,3-a]pyrazin-1-yl)cyclopentylamino)-2-oxoethyl)-N-methylfuran-2-carboxamide] displayed an IC50 (Table B) greater than 10 µM.

`CC[C@@H]1CN(C(=O)NCCF)C[C@@H]1c1cnc2cnc3[nH]ccc3n12` [Example #13, (3S,4R)-3-ethyl-N-(2-fluoroethyl)-4-(3H-imidazo[1,2-a]pyrrolo[2,3-e]pyrazin-8-yl)pyrrolidine-1-carboxamide] showed an IC50 of 1 to 10 µM. Still for that read-out and setting: to `C[C@@H]1C[C@H](CCC#N)C[C@@H]1c1nnc2cnc3[nH]ccc3n12` [Example #9, 3-((1S,3R,4S)-3-methyl-4-(6H-pyrrolo[2,3-e][1,2,4]triazolo[4,3-a]pyrazin-1-yl)cyclopentyl)propanenitrile] belongs greater than 10 µM. `CC[C@@H]1C[C@H](NC(=O)/C=C/c2ccc(C)o2)C[C@@H]1c1nnc2cnc3[nH]ccc3n12` [compound 25, (E)-N-((1S,3R,4S)-3-ethyl-4-(6H-pyrrolo[2,3-e][1,2,4]triazolo[4,3-a]pyrazin-1-yl)cyclopentyl)-3-(5-methylfuran-2-yl)acrylamide]: the IC50 (Table B) lay within 1 to 10 µM. The compound `C[C@@H]1C[C@@H](N2CCC(C#N)CC2)C[C@@H]1c1cnc2cnc3[nH]ccc3n12` [Example #8, 1-((1R,3S,4R)-3-(3H-imidazo[1,2-a]pyrrolo[2,3-e]pyrazin-8-yl)-4-methylcyclopentyl)piperidine-4-carbonitrile] registered an IC50 greater than 10 µM. On the same count and under the same terms, to “1-((1R,3S,4R)-3-(3H-imidazo[1,2-a]pyrrolo[2,3-e]pyrazin-8-yl)-4-methylcyclopentyl)methyl)azetidine-3-carbonitrile and 1-(((1S,3S,4R)-3-(3H-imidazo[1,2-a]pyrrolo[2,3-e]pyrazin-8-yl)-4-methylcyclopentyl)methyl)azetidine-3-carbonitrile [Example #7]” belongs greater than 10 µM. On to `CC[C@@H]1C[C@H](NC(=O)c2cc(OC)no2)C[C@@H]1c1nnc2cnc3[nH]ccc3n12` [compound 65, N-((1S,3R,4S)-3-ethyl-4-(6H-pyrrolo[2,3-e][1,2,4]triazolo[4,3-a]pyrazin-1-yl)cyclopentyl)-3-methoxyisoxazole-5-carboxamide], for which the IC50 (Table B) fell in the range of 1 to 10 µM.

With `C[C@@H]1C[C@@H](CCC#N)C[C@@H]1c1nnc2cnc3[nH]ccc3n12` [Example #10, 3-((1R,3R,4S)-3-methyl-4-(6H-pyrrolo[2,3-e][1,2,4]triazolo[4,3-a]pyrazin-1-yl)cyclopentyl)propanenitrile], the IC50 is 1 to 10 µM. Under “Table B”, `CC[C@@H]1C[C@H](NC(=O)CCC2CCC2)C[C@@H]1c1nnc2cnc3[nH]ccc3n12` [compound 67, 3-cyclobutyl-N-((1S,3R,4S)-3-ethyl-4-(6H-pyrrolo[2,3-e][1,2,4]triazolo[4,3-a]pyrazin-1-yl)cyclopentyl)propanamide] had an IC50 of 1 to 10 µM. In the case of `C[C@@H]1CN(C(=O)N2CCOCC2)C[C@@H]1c1cnc2cnc3[nH]ccc3n12` [Example #20, ((3R,4S)-3-(3H-imidazo[1,2-a]pyrrolo[2,3-e]pyrazin-8-yl)-4-methylpyrrolidin-1-yl)(morpholino)methanone], the IC50 is greater than 10 µM. Still for that read-out and setting: the figure for `CC[C@@H]1C[C@@H](C(=O)NCC(F)(F)F)C[C@@H]1c1nnc2cnc3[nH]ccc3n12` [Example #6, (1R,3R,4S)-3-ethyl-4-(6H-pyrrolo[2,3-e][1,2,4]triazolo[4,3-a]pyrazin-1-yl)-N-(2,2,2-trifluoroethyl)cyclopentanecarboxamide] is greater than 10 µM; for `C[C@@H]1C[C@H](NC(=O)c2cccnn2)C[C@@H]1c1cnc2cnc3[nH]ccc3n12` [Example #2, N-((1S,3S,4R)-3-(3H-imidazo[1,2-a]pyrrolo[2,3-e]pyrazin-8-yl)-4-methylcyclopentyl)pyridazine-3-carboxamide] it is greater than 10 µM.

`CC[C@@H]1C[C@H](NC(=O)c2ocnc2C)C[C@@H]1c1nnc2cnc3[nH]ccc3n12` [compound 51, N-((1S,3R,4S)-3-ethyl-4-(6H-pyrrolo[2,3-e][1,2,4]triazolo[4,3-a]pyrazin-1-yl)cyclopentyl)-4-methyloxazole-5-carboxamide] came in with an IC50 (Table B) of 1 to 10 µM.

In turn, `CC[C@@H]1C[C@H](NC(=O)CNC(=O)c2cnoc2C)C[C@@H]1c1nnc2cnc3[nH]ccc3n12` [compound 38, N-(2-((1S,3R,4S)-3-ethyl-4-(6H-pyrrolo[2,3-e][1,2,4]triazolo[4,3-a]pyrazin-1-yl)cyclopentylamino)-2-oxoethyl)-5-methylisoxazole-4-carboxamide] came in with a half-inhibitory concentration (IC50) (Table B) of 1 to 10 µM. The same measure, in the same setting: to `CC[C@@H]1C[C@H](NC(=O)c2ccc(CSC)o2)C[C@@H]1c1nnc2cnc3[nH]ccc3n12` [compound 64, N-((1S,3R,4S)-3-ethyl-4-(6H-pyrrolo[2,3-e][1,2,4]triazolo[4,3-a]pyrazin-1-yl)cyclopentyl)-5-(methylthiomethyl)furan-2-carboxamide] belongs 1 to 10 µM; to `CC[C@@H]1C[C@H](NC(=O)CCC2NC(=O)NC2=O)C[C@@H]1c1nnc2cnc3[nH]ccc3n12` (stereo partly drawn) [compound 28, 3-(2,5-dioxoimidazolidin-4-yl)-N-((1S,3R,4S)-3-ethyl-4-(6H-pyrrolo[2,3-e][1,2,4]triazolo[4,3-a]pyrazin-1-yl)cyclopentyl)propanamide], 1 to 10 µM. Consider `CC[C@@H]1C[C@H](NC(=O)CCc2cc(OC)no2)C[C@@H]1c1nnc2cnc3[nH]ccc3n12` [compound 36, N-((1S,3R,4S)-3-ethyl-4-(6H-pyrrolo[2,3-e][1,2,4]triazolo[4,3-a]pyrazin-1-yl)cyclopentyl)-3-(3-methoxyisoxazol-5-yl)propanamide], for which the IC50 (Table B) was 1 to 10 µM. Regarding `CC[C@@H]1C[C@H](NC(=O)c2cc(C3CC3)on2)C[C@@H]1c1nnc2cnc3[nH]ccc3n12` [compound 59, 5-cyclopropyl-N-((1S,3R,4S)-3-ethyl-4-(6H-pyrrolo[2,3-e][1,2,4]triazolo[4,3-a]pyrazin-1-yl)cyclopentyl)isoxazole-3-carboxamide], the IC50 (Table B) lay within 1 to 10 µM. Under “Table B”, `CC[C@@H]1C[C@H](NC(=O)Cc2cc(C)no2)C[C@@H]1c1nnc2cnc3[nH]ccc3n12` [compound 55, N-((1S,3R,4S)-3-ethyl-4-(6H-pyrrolo[2,3-e][1,2,4]triazolo[4,3-a]pyrazin-1-yl)cyclopentyl)-2-(3-methylisoxazol-5-yl)acetamide] had an IC50 of 1 to 10 µM.

Compound `CC[C@@H]1CN(C(=O)NCC(F)F)C[C@@H]1c1cnc2cnc3[nH]ccc3n12` [Example #14, (3S,4R)—N-(2,2-difluoroethyl)-3-ethyl-4-(3H-imidazo[1,2-a]pyrrolo[2,3-e]pyrazin-8-yl)pyrrolidine-1-carboxamide] displayed an IC50 of 1 to 10 µM. For `CC[C@@H]1C[C@H](NC(=O)c2ccoc2C)C[C@@H]1c1nnc2cnc3[nH]ccc3n12` [compound 52, N-((1S,3R,4S)-3-ethyl-4-(6H-pyrrolo[2,3-e][1,2,4]triazolo[4,3-a]pyrazin-1-yl)cyclopentyl)-2-methylfuran-3-carboxamide], the IC50 (Table B) lay within 1 to 10 µM.

As to `CC[C@@H]1C[C@H](NC(=O)c2ccno2)C[C@@H]1c1nnc2cnc3[nH]ccc3n12` [compound 50, N-((1S,3R,4S)-3-ethyl-4-(6H-pyrrolo[2,3-e][1,2,4]triazolo[4,3-a]pyrazin-1-yl)cyclopentyl)isoxazole-5-carboxamide], the IC50 (Table B) was 1 to 10 µM. The compound `CC[C@@H]1CN(C(=O)CCC(F)(F)F)C[C@@H]1c1cnc2cnc3[nH]ccc3n12` [Example #15, 1-((3S,4R)-3-ethyl-4-(3H-imidazo[1,2-a]pyrrolo[2,3-e]pyrazin-8-yl)pyrrolidin-1-yl)-4,4,4-trifluorobutan-1-one] yielded an IC50 of 1 to 10 µM.

In turn, `CC[C@@H]1C[C@H](NC(=O)c2ncoc2C)C[C@@H]1c1nnc2cnc3[nH]ccc3n12` [compound 42, N-((1S,3R,4S)-3-ethyl-4-(6H-pyrrolo[2,3-e][1,2,4]triazolo[4,3-a]pyrazin-1-yl)cyclopentyl)-5-methyloxazole-4-carboxamide] gave an IC50 (Table B) of 1 to 10 µM.
